Reference: BindingDB's records for doi:10.1016/s0960-894x(98)00476-4 (University of Michigan, 1999)

Assay: Binding affinity against Opioid receptor delta 1

SMILES | Ki [µM]
CC1(C)SSC[C@@H](NC(=O)[C@@H](N)Cc2ccccc2)C(=O)N[C@@H](Cc2ccccc2)C(=O)N[C@H]1C(=O)O [10-(2-Amino-3-phenyl-propionylamino)-7-benzyl-3,3-dimethyl-6,9-dioxo-1,2-dithia-5,8-diaza-cycloundecane-4-carboxylic acid] | 0.042
CC1(C)SCCSC[C@@H](NC(=O)[C@@H](N)Cc2ccccc2)C(=O)N[C@@H](Cc2ccccc2)C(=O)N[C@H]1C(N)=O [12-(2-Amino-3-phenyl-propionylamino)-9-benzyl-5,5-dimethyl-8,11-dioxo-1,4-dithia-7,10-diaza-cyclotridecane-6-carboxylic acid amide] | 1.02
